# Laboratory results: ChEMBL document CHEMBL3286253, “Design, synthesis, and structure-activity relationship studies of novel thioether pleuromutilin derivatives as potent antibacterial agents” (J Med Chem, 2014)
# pIC50: −log10 of the molar value.
# Columns and labels:
# Staphylococcus aureus [1] = assay: Antibacterial activity against Staphylococcus aureus […] after 16 hrs by agar dilution method; assay type: functional
# Staphylococcus aureus [2] = assay: Antibacterial activity against methicillin-sensitive Staphylococcus aureus after 16 hrs by agar dilution method; assay type: functional
# Staphylococcus aureus [3] = assay: Antibacterial activity against methicillin-resistant Staphylococcus aureus after 16 hrs by agar dilution method; assay type: functional
# [4] = system: Staphylococcus epidermidis; assay: Antibacterial activity against methicillin-sensitive Staphylococcus epidermidis after 16 hrs by agar dilution method; assay type: functional
# Streptococcus pneumoniae = assay: Antibacterial activity against penicillin-resistant Streptococcus pneumoniae after 16 hrs by agar dilution method; assay type: functional
# [5] = AUC (0 to t) in Sprague-Dawley rat at 2 mg/kg, iv administered as cassette dosing; assay type: ADME, organism-based; parameters: dose 2 mg/kg, route intravenous; settings: plasma
# [6] = Mean residence time in Sprague-Dawley rat at 2 mg/kg, iv administered as cassette dosing; assay type: ADME, organism-based; parameters: dose 2 mg/kg, route intravenous; settings: in vivo
# [7] = Elimination half life in Sprague-Dawley rat at 2 mg/kg, iv administered as cassette dosing; assay type: ADME, organism-based; parameters: dose 2 mg/kg, route intravenous; settings: in vivo, read-out: beta t1/2 (converted)
# [8] = Clearance in Sprague-Dawley rat at 2 mg/kg, iv administered as cassette dosing; assay type: ADME, organism-based; parameters: dose 2 mg/kg, route intravenous; settings: in vivo
# [9] = Volume of distribution at steady state in Sprague-Dawley rat at 2 mg/kg, iv administered as cassette dosing; assay type: ADME, organism-based; parameters: dose 2 mg/kg, route intravenous; settings: in vivo, read-out: Vdss
# [10] = system: Staphylococcus epidermidis; assay: Antibacterial activity against methicillin-resistant Staphylococcus epidermidis after 16 hrs by agar dilution method; assay type: functional
# Cytochrome P450 1A2 = biological target: T1, Cytochrome P450 1A2 (Homo sapiens, UniProt P05177); assay: Inhibition of CYP1A2 in human liver microsomes using phenacetin as substrate after 15 mins by LC/MS/MS analysis
# T1 sequence (P05177 whole entry): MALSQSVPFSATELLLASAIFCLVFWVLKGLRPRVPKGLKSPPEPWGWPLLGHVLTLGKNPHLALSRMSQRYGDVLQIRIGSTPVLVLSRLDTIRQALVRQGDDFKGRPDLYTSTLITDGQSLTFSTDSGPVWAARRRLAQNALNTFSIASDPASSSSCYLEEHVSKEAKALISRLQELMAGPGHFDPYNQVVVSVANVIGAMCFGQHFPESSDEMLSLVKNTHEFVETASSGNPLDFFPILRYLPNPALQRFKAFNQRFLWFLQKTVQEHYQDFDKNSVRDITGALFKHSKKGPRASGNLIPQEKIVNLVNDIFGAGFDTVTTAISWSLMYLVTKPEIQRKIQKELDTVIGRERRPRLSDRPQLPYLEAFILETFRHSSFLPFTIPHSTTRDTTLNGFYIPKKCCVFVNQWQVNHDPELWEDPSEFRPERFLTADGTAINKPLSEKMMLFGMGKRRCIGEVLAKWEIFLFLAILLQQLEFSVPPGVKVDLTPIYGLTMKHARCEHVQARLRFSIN
# Cytochrome P450 2C9 = Cytochrome P450 2C9 (Homo sapiens, UniProt P11712); assay: Inhibition of CYP2C9 in human liver microsomes using tolbutamide as substrate after 15 mins by LC/MS/MS analysis
# Cytochrome P450 2C19 = Cytochrome P450 2C19 (Homo sapiens, UniProt P33261); assay: Inhibition of CYP2C19 in human liver microsomes using mephenytoin as substrate after 15 mins by LC/MS/MS analysis
# Cytochrome P450 2D6 = Cytochrome P450 2D6 (Homo sapiens, UniProt P10635); assay: Inhibition of CYP2D6 in human liver microsomes using dextromethorphan as substrate after 15 mins by LC/MS/MS analysis
# Cytochrome P450 3A4 [11] = biological target: T2, Cytochrome P450 3A4 (Homo sapiens, UniProt P08684); assay: Inhibition of CYP3A4 in human liver microsomes using midazolam as substrate after 15 mins by LC/MS/MS analysis
# Cytochrome P450 3A4 [12] = biological target: T2, Cytochrome P450 3A4; assay: Inhibition of CYP3A4 in human liver microsomes using testosterone as substrate after 15 mins by LC/MS/MS analysis
# Staphylococcus aureus [13] = assay: Antibacterial activity against clinical isolate of methicillin-sensitive Staphylococcus aureus infected in iv dosed mouse administered 1 hr after infection for 4 days; assay type: functional
# Staphylococcus aureus [14] = assay: Antibacterial activity against clinical isolate of methicillin-sensitive Staphylococcus aureus infected in iv dosed mouse assessed as host survival administered 1 hr after infection for 4 days; assay type: functional
# Staphylococcus aureus [15] = assay: Antibacterial activity against of methicillin-sensitive Staphylococcus aureus ATCC 19636 infected in iv dosed mouse administered 1 hr after infection measured after 48 hrs; assay type: functional
# Staphylococcus aureus [16] = assay: Antibacterial activity against of methicillin-sensitive Staphylococcus aureus ATCC 19636 infected in iv dosed mouse assessed as host survival administered 1 hr after infection measured after 48 hrs; assay type: functional; settings: ATCC 19636, iv
# Staphylococcus aureus [17] = assay: Antibacterial activity against of methicillin-resistant Staphylococcus aureus ATCC 33591 infected in iv dosed neutropenic mouse administered 1 hr after infection measured after 24 hrs; assay type: functional
# Staphylococcus aureus [18] = assay: Antibacterial activity against of methicillin-resistant Staphylococcus aureus ATCC 33591 infected in iv dosed neutropenic mouse assessed as host survival administered 1 hr after infection measured after 24 hrs; assay type: functional; settings: ATCC 33591, iv
# [19] = AUC (0 to t) in Sprague-Dawley rat at 10 mg/kg, iv; assay type: ADME, organism-based; parameters: dose 10 mg/kg, route intravenous; settings: plasma
# [20] = Mean residence time in Sprague-Dawley rat at 10 mg/kg, iv; assay type: ADME, organism-based; parameters: dose 10 mg/kg, route intravenous; settings: in vivo
# [21] = Elimination half life in Sprague-Dawley rat at 10 mg/kg, iv; assay type: ADME, organism-based; parameters: dose 10 mg/kg, route intravenous; settings: in vivo, read-out: beta t1/2 (converted)
# [22] = Clearance in Sprague-Dawley rat at 10 mg/kg, iv; assay type: ADME, organism-based; parameters: dose 10 mg/kg, route intravenous; settings: in vivo
# [23] = Volume of distribution at steady state in Sprague-Dawley rat at 10 mg/kg, iv; assay type: ADME, organism-based; parameters: dose 10 mg/kg, route intravenous; settings: in vivo, read-out: Vdss
# T2 sequence (P08684 whole entry): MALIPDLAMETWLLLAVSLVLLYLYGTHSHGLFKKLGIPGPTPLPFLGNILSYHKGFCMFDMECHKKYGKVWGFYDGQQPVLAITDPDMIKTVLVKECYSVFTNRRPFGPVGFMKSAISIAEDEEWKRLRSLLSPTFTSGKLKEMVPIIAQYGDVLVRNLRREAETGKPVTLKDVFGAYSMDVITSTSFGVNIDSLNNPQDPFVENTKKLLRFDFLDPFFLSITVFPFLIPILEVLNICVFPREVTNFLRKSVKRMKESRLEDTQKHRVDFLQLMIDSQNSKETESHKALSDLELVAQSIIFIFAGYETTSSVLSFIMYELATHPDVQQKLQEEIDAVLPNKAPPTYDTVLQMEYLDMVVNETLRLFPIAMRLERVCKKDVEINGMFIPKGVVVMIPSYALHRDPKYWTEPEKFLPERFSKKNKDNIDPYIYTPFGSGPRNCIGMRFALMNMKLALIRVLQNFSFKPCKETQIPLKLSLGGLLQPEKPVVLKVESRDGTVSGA
# Sequence of Cytochrome P450 2D6 (P10635 whole entry): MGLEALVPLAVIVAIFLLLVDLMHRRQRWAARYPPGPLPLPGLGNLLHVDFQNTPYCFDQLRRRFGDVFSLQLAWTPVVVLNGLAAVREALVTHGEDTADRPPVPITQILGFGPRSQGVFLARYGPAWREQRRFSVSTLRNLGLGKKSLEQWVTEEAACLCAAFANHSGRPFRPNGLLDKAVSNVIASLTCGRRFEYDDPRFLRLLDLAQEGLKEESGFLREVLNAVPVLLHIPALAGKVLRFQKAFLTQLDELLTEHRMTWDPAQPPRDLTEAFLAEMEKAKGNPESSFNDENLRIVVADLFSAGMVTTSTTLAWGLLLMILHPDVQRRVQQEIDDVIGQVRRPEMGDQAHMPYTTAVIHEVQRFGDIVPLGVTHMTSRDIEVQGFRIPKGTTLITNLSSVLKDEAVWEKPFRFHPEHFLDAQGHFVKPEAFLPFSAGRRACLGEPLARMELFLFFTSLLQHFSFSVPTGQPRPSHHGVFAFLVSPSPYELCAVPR
# Sequence of Cytochrome P450 2C9 (P11712 whole entry): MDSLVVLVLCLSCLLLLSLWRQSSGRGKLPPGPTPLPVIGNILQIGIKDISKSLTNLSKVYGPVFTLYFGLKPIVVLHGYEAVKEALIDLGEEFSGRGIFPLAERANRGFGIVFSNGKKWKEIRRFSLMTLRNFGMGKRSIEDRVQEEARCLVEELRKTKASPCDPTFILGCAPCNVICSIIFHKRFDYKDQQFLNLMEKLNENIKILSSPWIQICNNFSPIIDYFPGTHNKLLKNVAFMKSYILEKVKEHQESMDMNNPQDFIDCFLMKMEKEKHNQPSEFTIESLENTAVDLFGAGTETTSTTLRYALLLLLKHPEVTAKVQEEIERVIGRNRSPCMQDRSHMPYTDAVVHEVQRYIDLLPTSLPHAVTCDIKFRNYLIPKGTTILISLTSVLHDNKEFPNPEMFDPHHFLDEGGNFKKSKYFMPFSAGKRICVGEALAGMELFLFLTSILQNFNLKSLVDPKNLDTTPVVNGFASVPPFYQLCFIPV
# Sequence of Cytochrome P450 2C19 (P33261 whole entry): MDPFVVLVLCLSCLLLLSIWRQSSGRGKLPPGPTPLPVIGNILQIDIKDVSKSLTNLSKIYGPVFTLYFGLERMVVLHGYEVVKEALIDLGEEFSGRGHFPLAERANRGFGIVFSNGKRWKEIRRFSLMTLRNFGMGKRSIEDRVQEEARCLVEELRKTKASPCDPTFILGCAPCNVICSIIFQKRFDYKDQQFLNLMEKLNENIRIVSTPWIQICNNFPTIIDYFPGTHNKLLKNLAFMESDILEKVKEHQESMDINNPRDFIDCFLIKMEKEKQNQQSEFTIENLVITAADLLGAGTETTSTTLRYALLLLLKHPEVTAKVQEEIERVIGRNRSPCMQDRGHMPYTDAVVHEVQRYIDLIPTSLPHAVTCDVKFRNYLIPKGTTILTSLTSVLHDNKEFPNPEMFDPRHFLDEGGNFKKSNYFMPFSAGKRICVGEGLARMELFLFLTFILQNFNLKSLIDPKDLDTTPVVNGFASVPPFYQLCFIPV
SMILES,MIC (Staphylococcus aureus [1]) [mg/L],MIC (Staphylococcus aureus [2]) [mg/L],MIC (Staphylococcus aureus [3]) [mg/L],MIC [4] [mg/L],MIC (Streptococcus pneumoniae) [mg/L],AUC(0-t) [5] [µg·h/mL],MRT [6] [min],half-life [7] [min],clearance [8] [L/h/kg],Vd [9] [L/kg],MIC [10] [mg/L],pIC50 (Cytochrome P450 1A2),pIC50 (Cytochrome P450 2C9),pIC50 (Cytochrome P450 2C19),pIC50 (Cytochrome P450 2D6),pIC50 (Cytochrome P450 3A4 [11]),pIC50 (Cytochrome P450 3A4 [12]),MIC (Staphylococcus aureus [13]) [mg/L],ED50 (Staphylococcus aureus [14]) [mg/kg],MIC (Staphylococcus aureus [15]) [mg/L],further results
C=C[C@]1(C)C[C@@H](OC(=O)CSc2cncc(NC(=O)CN)c2)[C@]2(C)[C@H](C)CC[C@]3(CCC(=O)[C@H]32)[C@@H](C)[C@@H]1O,0.063,0.063,0.063,0.125,0.063,0.041,16.8,20.4,49.7,13.8,0.125,,,,,,,,,,
C=C[C@]1(C)C[C@@H](OC(=O)CSc2cncc(NC(=O)CN3CCCC(O)C3)c2)[C@]2(C)[C@H](C)CC[C@]3(CCC(=O)[C@H]32)[C@@H](C)[C@@H]1O (stereo partly drawn),0.063,0.063,0.063,0.063,0.063,0.522,28.8,40.2,3.9,1.9,0.063,< 4.60,< 4.60,4.91,< 4.60,5.97,5.91,,,,
CC(=O)NC[C@H]1CN(c2ccc(N3CCOCC3)c(F)c2)C(=O)O1 [LINEZOLID],,,,,,,,,,,,,,,,,,1,15.6,1,ED50 (Staphylococcus aureus [16]): 7.89 mg/kg; MIC (Staphylococcus aureus [17]): 1 mg/L; ED50 (Staphylococcus aureus [18]): 9.39 mg/kg
C=C[C@]1(C)C[C@@H](OC(=O)CSc2cncc(NC(=O)CN3CCC(O)CC3)c2)[C@]2(C)[C@H](C)CC[C@]3(CCC(=O)[C@H]32)[C@@H](C)[C@@H]1O,0.031,0.125,0.063,0.125,0.063,0.65,36.6,40.2,3.2,1.9,0.063,< 4.60,< 4.60,< 4.60,4.95,5.72,5.79,0.063,16.7,0.063,ED50 (Staphylococcus aureus [16]): 9.02 mg/kg; MIC (Staphylococcus aureus [17]): 0.125 mg/L; ED50 (Staphylococcus aureus [18]): 3.13 mg/kg
C=C[C@]1(C)C[C@@H](OC(=O)CSc2cncc(CO)c2)[C@]2(C)[C@H](C)CC[C@]3(CCC(=O)[C@H]32)[C@@H](C)[C@@H]1O,0.031,0.063,0.031,0.031,0.063,,,,,,0.031,,,,,,,,,,AUC(0-t) [19]: 3.48 µg·h/mL; MRT [20]: 32.4 min; half-life [21]: 360 min; clearance [22]: 2.88 L/h/kg; Vd [23]: 1.56 L/kg
